# Results published in patent US20230348394A1, “COMPOSITIONS AND METHODS FOR TREATING MUSCULAR DYSTROPHIES” (The Regents of the University of California, priority 2020, published 2023).
# Experiments:
# SSPN gene expression [1] = experiment: SSPN gene expression (qPCR) in dystrophin-deficient H2K mdx myotubes; format: cell-based, murine; settings: 0.5 to 50 μM
# Procedure: C2C12 cells (American Type Culture Collection) were grown at 37° C. with 5% CO2 in growth medium containing DMEM (Gibco) with 20% FBS (Sigma-Aldrich). Upon reaching 90-100% confluency, myoblasts were induced to differentiate by replacing the medium with differentiation medium consisting of DMEM with 2% horse serum (Sigma-Aldrich). Conditionally immortalized H2K WT and mdx myoblasts with a nonsense mutation in exon 23 of dystrophin were a gift from Terrance Partridge, Ph.D. (Children's National Medical Center, Washington, D.C.). […]
# RNA from myotubes treated for 48 hrs was extracted from cells using Trizol-based (Thermo Fisher Scientific) phase separation, Chomczynski et al., Biotechniques. […] RNA concentrations were determined using a NanoDrop 1000 (Thermo Fisher Scientific) and 750 ng of RNA in a 20 Id reaction was reverse transcribed using iScript cDNA synthesis (Bio-Rad) with the following cycling conditions: 25° C. for 5 mins, 42° C. for 30 mins, 85° C. for 5 mins. […] For qPCR of human samples, TaqMan assays were used to quantify SSPN (assay ID Hs01025520m 1) and ACTB (assay ID Hs01060665_g1) with the following reaction conditions: 50° C. for 2 mins, 95° C. for 10 mins, 40 cycles of 95° C. for 15 seconds and 62° C. for 1 minute. […]
# [2] = Half-life analysis in CD-1 mouse plasma; format: in vitro ADME, CD-1 mice; settings: 37° C.
# Procedure: Half-life analysis was performed by Eurofins Panlabs Inc. using 1 μM of compound with a final DMSO concentration of 0.5%. PBS or plasma from CD-1 mice was pre-warmed to 37° C. for 5 mins before addition of the test compounds and continued incubation at 37° C. At 0, 30, 60, 120, 240, and 1440 mins an aliquot of solution containing compounds was mixed with acetonitrile/methanol, mixed, and centrifuged. The supernatants were used for HPLC-MS/MS analysis.
# SSPN gene expression [3] = experiment: SSPN gene expression in tibialis anterior after intramuscular injection in mdx mice; format: in vivo; settings: 4 hours
# Procedure: For the preliminary safety assessment of OT-9, we performed IP injections in 6 month old C57/B16 males. The mice were injected with 100 μl of vehicle (5% DMSO (Sigma), 95% PBS), 100 μl of 30 mg/kg of OT-9 in vehicle, or 100 μl of 50 mg/kg of OT-9 in vehicle (n=1 mouse per treatment). […] For assessment of activity, 20-weeks old male mdx littermates were injected in both tibialis anterior muscles with vehicle (5% DMSO, 95% PBS) or 86 μg of OT-9. Two mice were injected in both TAs with vehicle and three mice were injected in both TAs with 200 of OT-9 (9.4 mM solution containing 86 μg of OT-9). After 4 hours, the muscles were harvested and processed for gene expression analysis. For assessment of activity of OT-9m after local administration, 19-22-weeks old mdx males were injected in both tibialis anterior muscles with vehicle (5% DMSO, 95% PBS) or 3 mg/kg and 10 mg/kg of OT-9m. After 4 hours, the muscles were harvested and processed for gene expression analysis. For assessment of activity of OT-9m after systemic administration, 13-weeks old mdx males were injected subcutaneously with vehicle (4% PEG-200 in hydroxypropyl-b-cyclodextrin) or 20 mg/kg/day of OT-9m. After 13 days of treatment, the muscles were harvested and processed for gene expression analysis.
# After the preliminary safety evaluation, we tested the ability of OT-9 to increase SSPN gene expression in vivo. […] Five 20-weeks old male mdx littermates were subjected to intramuscular injections in both tibialis anterior (TA) muscles. Two mice were injected in both TAs with vehicle and […] were injected with 3 mg/kg of OT-9 (molar equivalent of 9.4 mM used in the safety assessment). After 4 hours of treatment, the TAs were harvested and processed for gene expression analysis. […] After determination that OT-9 is capable of increasing SSPN gene expression in vivo, we evaluated one of its derivatives, OT-9m, for its ability to increase SSPN expression in mdx mice. OT-9m was chosen based on its improved activity in vitro compared to OT-9 (compare, Table 1, entries 1 & 14). To assess activity OT-9m in vivo after local administration, eleven 19-22 weeks old male mdx mice were subjected to intramuscular injections in both tibialis anterior (TA) muscles. Four mice were injected in both TAs with vehicle, three mice were injected with 3 mg/kg of OT-9m and four mice were injected with 10 mg/kg of OT-9m. After 4 hours of treatment, the TAs were harvested and processed for gene expression analysis.
smiles,measurement,setting,value
CCN(CC)c1ccc2cc(C(=O)Nc3ccc(C(=O)N4CCCCCC4)cc3)c(=O)oc2c1 [OT-9],concentration at which the concentration-dependent SSPN mRNA response peaked,SSPN gene expression [1],5.5 µM
same,half-life at 1 μM,[2],7.7 h
same,increase in SSPN gene expression relative to the vehicle control-treated group,"SSPN gene expression [3]; 3 mg/kg intramuscular, tibialis anterior",1.7 fold
same,adverse effects after local injection,"SSPN gene expression [3]; OT-9 3 mg/kg intramuscular, both TA",No adverse effects
